Data on 34 molecules can be found in patent publication US20220280476A1, “KCNT1 INHIBITORS AND METHODS OF USE” (Praxis Precision Medicines, Inc., priority 2019, published 2022).

This experiment concerns the target T1, KCNT1 (KNa1.1, Slack) (Homo sapiens, UniProt Q5JUK3).
T1 construct: expressed in transfected cells; host or cells: HEK-TREX (tetracycline-inducible HEK cell line)
T1 sequence (Q5JUK3 1-1230): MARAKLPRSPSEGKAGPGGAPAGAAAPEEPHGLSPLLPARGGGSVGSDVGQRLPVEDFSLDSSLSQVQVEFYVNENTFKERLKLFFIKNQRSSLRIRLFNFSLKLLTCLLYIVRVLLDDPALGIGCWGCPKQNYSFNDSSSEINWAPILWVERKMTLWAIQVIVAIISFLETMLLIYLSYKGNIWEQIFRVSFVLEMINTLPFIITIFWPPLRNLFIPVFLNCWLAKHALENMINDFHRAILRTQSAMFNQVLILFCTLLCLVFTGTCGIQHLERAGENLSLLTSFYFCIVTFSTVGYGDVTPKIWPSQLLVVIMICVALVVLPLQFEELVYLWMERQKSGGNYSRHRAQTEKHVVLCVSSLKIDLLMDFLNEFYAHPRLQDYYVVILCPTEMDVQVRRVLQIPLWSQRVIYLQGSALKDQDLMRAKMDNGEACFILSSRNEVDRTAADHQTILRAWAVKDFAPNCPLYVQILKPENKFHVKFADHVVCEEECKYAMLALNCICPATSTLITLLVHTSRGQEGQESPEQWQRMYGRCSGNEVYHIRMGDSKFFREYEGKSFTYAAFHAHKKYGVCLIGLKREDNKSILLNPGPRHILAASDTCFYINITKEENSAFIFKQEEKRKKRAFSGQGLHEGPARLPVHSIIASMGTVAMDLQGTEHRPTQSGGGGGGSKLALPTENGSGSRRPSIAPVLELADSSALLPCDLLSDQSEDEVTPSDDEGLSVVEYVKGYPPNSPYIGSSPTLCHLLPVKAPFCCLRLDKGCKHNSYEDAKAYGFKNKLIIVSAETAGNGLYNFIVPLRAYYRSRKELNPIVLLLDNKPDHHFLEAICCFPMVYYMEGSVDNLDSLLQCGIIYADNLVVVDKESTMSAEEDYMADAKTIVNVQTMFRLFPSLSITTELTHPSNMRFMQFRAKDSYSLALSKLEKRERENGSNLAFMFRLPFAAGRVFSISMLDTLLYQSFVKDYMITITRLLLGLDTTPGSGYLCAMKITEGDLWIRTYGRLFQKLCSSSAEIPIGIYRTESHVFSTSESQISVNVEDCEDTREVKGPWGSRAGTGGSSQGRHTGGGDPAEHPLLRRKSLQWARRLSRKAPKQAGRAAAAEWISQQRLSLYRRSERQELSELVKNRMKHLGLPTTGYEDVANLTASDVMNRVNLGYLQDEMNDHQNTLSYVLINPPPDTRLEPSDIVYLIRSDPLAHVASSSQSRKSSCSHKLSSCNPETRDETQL
The experiment in a line: KCNT1-WT-Basal patch clamp assay (SyncroPatch 384PE, HEK-TREX inducible cell line). It is filed as cell-based. The note with it: tetracycline inducible HEK-TREX cells; perforated patch; holding -80 mV, 100 ms step to 0 mV; room temperature; read-out: KCNT1 WB IC50. As for the experimental part: KCNT1-WT-Basal—Patch Clamp Assay
Inhibition of KCNT1 (KNa1.1, Slack) was evaluated using a tetracycline inducible cell line (HEK-TREX). Currents were recorded using the SyncroPatch 384PE automated, patch clamp system. Pulse generation and data collection were performed with PatchController384 V1.3.0 and DataController384 V1.2.1 (Nanion Technologies). The access resistance and apparent membrane capacitance were estimated using built-in protocols. Current were recorded in perforated patch mode (10 μM escin) from a population of cells. The cells were lifted, triturated, and resuspended at 800,000 cells/ml. The cells were allowed to recover in the cell hotel prior to experimentation. Currents were recorded at room temperature. The external solution contained the following (in mM): NaCl 105, NMDG 40, KCl 4, MgCl2 1, CaCl2 5 and HEPES 10 (pH=7.4, Osmolarity ˜300 mOsm). The extracellular solution was used as the wash, reference and compound delivery solution. The internal solution contained the following (in mM): NaCl 70, KF 70, KCl 10, EGTA 5, HEPES 5 and Escin 0.01 (pH=7.2, Osmolarity ˜295 mOsm). Escin is made at a 5 mM stock in water, aliquoted, and stored at −20° C. The compound plate was created at 2× concentrated in the extracellular solution. The compound was diluted to 1:2 when added to the recording well. The amount of DMSO in the extracellular solution was held constant at the level used for the highest tested concentration. A holding potential of −80 mV with a 100 ms step to 0 mV was used. Mean current was measured during the step to 0 mV. […] The average mean current from 3 sweeps was calculated and the % inhibition of each compound was calculated. The % Inhibition as a function of the compound concentration was fit with a Hill equation to derive IC50, slope, min and max parameters. If KCNT1 inhibition was less than 50% at the highest tested concentration or if an IC50 could not be calculated, then a percent inhibition was reported in place of the IC50.
On the technique in general: Patch clamp records ionic current or voltage across a cell membrane.
`Cc1ccc(O)c(C(=O)N[C@@H]2CCc3cc(Cl)ccc32)c1` [Compound III-12]: the IC50 was at most 1000 nM.
With `Cc1cc(C(=O)N[C@@H]2CCc3cc(Cl)ccc32)ccc1S(C)(=O)=O` [Compound II-48] the figure was 1000 to 20000 nM; with `CCS(=O)(=O)N(C)c1ccc(C(=O)N[C@H]2CCc3cc(Cl)ccc32)cc1` [Compound II-19], 1000 to 20000 nM.
The result for `O=C(N[C@@H]1CCc2cc(Cl)ccc21)c1ccc(S(=O)(=O)N2CCOCC2)s1` [Compound I-45] reads at most 1000 nM; that for `COCc1ccc(C(=O)N[C@@H]2CCc3cc(Cl)ccc32)s1` [Compound I-36], at most 1000 nM; that for `CS(=O)(=O)c1ccc(C(=O)N[C@@H]2CCc3cc(Cl)ccc32)c(F)c1` [Compound II-36], 1000 to 20000 nM.
Consider `CS(=O)(=O)Cc1ccc(C(=O)NC2CCc3cc(Cl)ccc32)cc1` (single isomer, unassigned) [Compound II-5, N-(5-chloroindan-1-yl)-4-(methylsulfonylmethyl)benzamide], for which the IC50 was at least 20000 nM.
The result for `CN1CCN(S(=O)(=O)c2ccc(C(=O)N[C@@H]3CCc4cc(Cl)ccc43)s2)CC1` [Compound I-42] reads at most 1000 nM; that for `CS(=O)(=O)Nc1ccc(C(=O)NC2CCCc3cc(Cl)ccc32)cc1` (single isomer, unassigned) [Compound II-52, N-(6-chlorotetralin-1-yl)-4-(methanesulfonamido)benzamide], at least 20000 nM.
With `CCS(=O)(=O)Nc1ccc(C(=O)N[C@@H]2CCc3cc(Cl)ccc32)cc1` [Compound II-10, N-[(1R)-5-chloroindan-1-yl]-4-(ethylsulfonylamino)benzamide] the figure was at most 1000 nM.
With `NS(=O)(=O)c1ccc(C(=O)N[C@H]2CCCc3cc(Cl)ccc32)s1` (single isomer, unassigned) [Compound I-32] the figure was at most 1000 nM; with `CS(=O)(=O)N(c1ccc(C(=O)N[C@@H]2CCc3cc(Cl)ccc32)cc1)C1COC1` [Compound II-50], 1000 to 20000 nM.
`CN(C)C(=O)c1ccc(C(=O)N[C@@H]2CCc3cc(Cl)ccc32)cc1` [Compound II-23]: the IC50 lay in the range of 1000 to 20000 nM.
`CC(=O)Nc1cccc(C(=O)N[C@@H]2CCc3cc(Cl)ccc32)c1O` [Compound III-16]: the IC50 is at most 1000 nM.
With `CN(C)S(=O)(=O)Nc1ccc(C(=O)N[C@@H]2CCc3cc(Cl)ccc32)cc1` [Compound II-34] the figure was 1000 to 20000 nM.
With `Cc1sc(C(=O)N[C@@H]2CCc3cc(Cl)ccc32)cc1S(N)(=O)=O` [Compound I-8] the figure was 1000 to 20000 nM.
The result for `CS(=O)(=O)N(CC(F)(F)F)c1ccc(C(=O)N[C@@H]2CCc3cc(Cl)ccc32)cc1` [Compound II-45] reads 1000 to 20000 nM.
Regarding `CS(=O)(=O)Nc1ccc(C(=O)N[C@@H]2CCc3cc(Cl)ccc32)c(O)c1` [Compound III-5], the IC50 was at most 1000 nM.
With `Cc1cc(S(N)(=O)=O)sc1C(=O)N[C@@H]1CCc2cc(Cl)ccc21` [Compound I-10] the figure was 1000 to 20000 nM; with `CC(=O)N(C)Cc1ccc(C(=O)N[C@@H]2CCc3cc(Cl)ccc32)s1` [Compound I-39], at most 1000 nM.
With `CS(=O)(=O)c1ccc(C(=O)N[C@H]2CCCc3cc(Cl)ccc32)cc1` (single isomer, unassigned) [Compound II-55], the IC50 is 1000 to 20000 nM.
With `Cc1cc(S(C)(=O)=O)ccc1C(=O)N[C@@H]1CCc2cc(Cl)ccc21` [Compound II-33] the figure was at least 20000 nM.
With `CN(c1ccc(C(=O)N[C@H]2CCc3cc(Cl)ccc32)cc1)S(=O)(=O)C1CC1` [Compound II-20] the figure was 1000 to 20000 nM; with `CNS(=O)(=O)c1ccc(C(=O)N[C@@H]2CCc3cc(Cl)ccc32)cc1` [Compound II-27], at most 1000 nM; with `CNS(=O)(=O)c1ccc(C(=O)N[C@@H]2CCc3cc(Cl)ccc32)s1` [Compound I-16], at most 1000 nM.
As to `CN(c1ccc(C(=O)NC2CCc3cc(Cl)ccc32)cc1)S(C)(=O)=O` (single isomer, unassigned) [Compound II-1, N-(5-chloroindan-1-yl)-4-[methyl(methylsulfonyl)amino]benzamide], the IC50 is at least 20000 nM.
The result for `CN(c1ccc(C(=O)N[C@@H]2CCc3cc(Cl)ccc32)cc1)S(=O)(=O)C1CC1` [Compound II-14] reads at most 1000 nM; that for `CNC(=O)c1ccc(C(=O)N[C@@H]2CCc3cc(Cl)ccc32)cc1` [Compound II-24], 1000 to 20000 nM; that for `O=C(N[C@@H]1CCc2cc(Cl)ccc21)c1ccc(S(=O)(=O)N2CCC2)s1` [Compound I-19], at most 1000 nM.
The result for `CS(=O)(=O)Nc1ccc(C(=O)NC2CCc3cc(F)ccc32)cc1` (single isomer, unassigned) [Compound II-57, N-[5-fluoroindan-1-yl]-4-(methanesulfonamido)benzamide] reads 1000 to 20000 nM; that for `CC(=O)NCc1ccc(C(=O)N[C@@H]2CCc3cc(Cl)ccc32)s1` [Compound I-44], at most 1000 nM.
The result for `COc1cccc(C(=O)N[C@@H]2CCc3cc(Cl)ccc32)c1O` [Compound III-14] reads at most 1000 nM; that for `CS(=O)(=O)Nc1ccc(C(=O)N[C@H]2CCc3cc(Cl)ccc32)cc1` [Compound II-3], at least 20000 nM; that for `CNS(=O)(=O)c1ccc(C(=O)N[C@H]2CCCc3cc(Cl)ccc32)s1` (single isomer, unassigned) [Compound I-22], at most 1000 nM.

The term IC50 denotes the concentration needed to halve the response being measured.
